Source: patent publication US11834450B2, “Compounds having ((3-nitrophenyl)sulfonyl)acetamide as BCL-2 inhibitors” (Eil Therapeutics, Inc., priority 2021, dated 2023)

Experiments:
RS4-11 cells = test: Cell viability assay RS4-11 (CellTiter-Glo); type: cell-based; conditions: Homo sapiens, 72 h; RS4-11 cells, 3 days, CellTiter-Glo; read-out: RS4-11 (CC50 code)
Method: (§1) Assay Condition: Used culture medium for HEK293-DMEM (PanEco, Cat #C420), for the rest of the cell lines—culture medium RPMI-1640 (PanEco, Cat #C363).
(§2) Assay Procedure: Compounds were prepared as 200× stocks with serial dilution in 100% DMSO with a final concentration of 1×. Dispersed 40 μl in 384-well plates at a concentration of 2000 cells per well for HEK293 and at a concentration of 4000 cells per well for the rest of the cell lines using a robotic station Biomek (Beckman). Before adding compounds, the cells were incubated at 37° C. (HEK293 were incubated for a day before adding compounds).
(§3) A dilution plate was prepared by pouring 78 μl of the appropriate culture medium using a robotic station Biomek (Beckman). Sequentially, using a robotic station, 2 μl of substances were taken and added to 78 μl of culture medium (dilution of compounds 40×). Took from there 10 μl and added to the plates to the cells (dilution of compounds 5×). The plates were incubated for 3 days at a temperature 37° C. After 3 days, 10 μl of CellTiter-Glo (Promega) was added to the cells and the luminescence was measured.

MOLT-4 cells = test: Cell viability assay MOLT-4 (CellTiter-Glo); type: cell-based; conditions: Homo sapiens, 72 h; MOLT-4 cells, 3 days, CellTiter-Glo; read-out: MOLT-4 (CC50 code)
Method: as §1, §2, §3

[1] = Cell viability assay HEK293 (CellTiter-Glo); type: cell-based; conditions: human, HEK293 cells, read-out: HEK293 (CC50 code)
Method: as §1, §2, §3

[2] = system: caspase-3 and -7 activities in RS4-11 cells; test: Cas-3/7 activation (Caspase-Glo 3/7) in RS4-11 cells; type: cell-based; conditions: Homo sapiens, 3.5 h at 37° C. and 30 min at r.t., read-out: Cas-3/7 (EC50 code)
Method: Assay Principle: The Caspase-Glo 3/7 Assay is homogeneous, luminescent assay that measures caspase-3 and -7 activities. The assay provides a luminogenic caspase-3/7 substrate, which contains the tetrapeptide sequence DEVD, in a reagent optimized for caspase activity.
Assay Procedure: Incubate RS4-11 cells with varying concentrations of test compounds for 3.5 h in a humidified incubator at 37° C. and 5% CO2 and 30 min at r.t. Add 15 μl Caspase-Glo reagent to each well and incubate the plate for 30 min at r.t. Read on ClarioStar Plus instrument.
Materials: Promega Caspase-Glo (Promega, #8212); Frozen RS4-11 cells; 384-well white plate (Corning, #3570).
Instrumentation: ClarioStar Plus; Biomek FX for liquid handling (Beckman Coulter).

BCL-2 = biological target: T1, BCL-2 (Homo sapiens, UniProt P10415); test: BCL-2 TR-FRET Assay (primary PPI inhibition); type: binding; conditions: 60 min incubation; read-out: BCL2 (IC50 code, BCL-2 TR-FRET)
T1 construct: purchased BPS Bioscience #50222

BCL-XL = biological target: T2, BCL-XL (Homo sapiens, UniProt Q07817); test: BCL-XL TR-FRET Assay (primary PPI inhibition); type: binding; conditions: 60 min incubation; read-out: BCLxL (IC50 code, BCL-XL TR-FRET)
T2 construct: purchased BPS Bioscience #50223
Method: BCL-XL TR-FRET Assay (BPS Bioscience, #50223) Assay Condition: The following assay concentrations and times were used: 10.5 ng BCL-XL, 5 ul of 1:100 anti-His Tb-labeled donor, 5 ul of 1:100 Dye-labeled acceptor, 5 ul of 1:80 BCL-XL Peptide Ligand, and 2 ul of test compound, with 60 min incubation time. The results of the assay were read using a Clariostar (BMG Labtech) plate reader with the following parameters: TR FRET, 340 ex/620 and 665 em; 60 μsec Delay; and 500 μsec integration.

T1 sequence (P10415 whole entry): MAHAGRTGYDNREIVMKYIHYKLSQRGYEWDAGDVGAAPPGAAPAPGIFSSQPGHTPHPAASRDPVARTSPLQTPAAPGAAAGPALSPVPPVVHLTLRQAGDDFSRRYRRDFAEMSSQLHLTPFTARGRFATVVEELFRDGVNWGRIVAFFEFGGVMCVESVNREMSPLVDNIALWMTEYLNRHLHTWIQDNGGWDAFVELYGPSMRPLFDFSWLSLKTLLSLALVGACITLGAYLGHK
T2 sequence (Q07817 whole entry): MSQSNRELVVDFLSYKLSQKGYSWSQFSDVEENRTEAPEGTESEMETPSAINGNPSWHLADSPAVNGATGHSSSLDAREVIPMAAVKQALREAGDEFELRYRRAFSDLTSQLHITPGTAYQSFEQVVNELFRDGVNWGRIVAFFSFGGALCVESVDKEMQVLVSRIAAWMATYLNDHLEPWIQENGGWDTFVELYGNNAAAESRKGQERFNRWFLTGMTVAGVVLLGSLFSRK

CC(C)C(=O)N1C[C@H](CN2CCN(c3ccc(C(=O)NS(=O)(=O)c4ccc(NCC5CCOCC5)c([N+](=O)[O-])c4)c(Oc4cnc5[nH]ccc5c4)c3)CC2)[C@@H](c2ccc(Cl)cc2)C1 [Compound 30, 4-[4-[[(3S,4S)-4-(4-chlorophenyl)-1-(2-methylpropanoyl)pyrrolidin-3-yl]methyl]piperazin-1-yl]-N-[3-nitro-4-(tetrahydropyran-4-ylmethylamino)phenyl]sulfonyl-2-(1H-pyrrolo[2,3-b]pyridin-5-yloxy)benzamide]
CC50 (RS4-11 cells): > 200 nM
CC50 (MOLT-4 cells): 2000 to 10000 nM
CC50 at 3 days [1]: > 25000 nM
EC50 [2]: > 250 nM

CC1=CC[C@H](CN2CCN(c3ccc(C(=O)NS(=O)(=O)c4ccc(NCC5CCOCC5)c([N+](=O)[O-])c4)c(Oc4cnc5[nH]ccc5c4)c3)CC2)[C@@H](c2ccc(Cl)cc2)C1 [Compound 31, 4-[4-[[(1S,6S)-6-(4-chlorophenyl)-4-methyl-cyclohex-3-en-1-yl]methyl]piperazin-1-yl]-N-[3-nitro-4-(tetrahydropyran-4-ylmethylamino)phenyl]sulfonyl-2-(1H-pyrrolo[2,3-b]pyridin-5-yloxy)benzamide]
CC50 (RS4-11 cells): 100 to 200 nM
CC50 (MOLT-4 cells): 2000 to 10000 nM
CC50 at 3 days [1]: 10000 to 25000 nM
EC50 [2]: 100 to 250 nM

O=C(NS(=O)(=O)c1ccc(NCC2CCOCC2)c([N+](=O)[O-])c1)c1ccc(N2CCN(C[C@@H]3Cc4cc(Cl)ccc4CN3C(=O)C3CC3)CC2)cc1Oc1cnc2[nH]ccc2c1 [Compound 42, 4-[4-[[(3S)-6-chloro-2-(cyclopropanecarbonyl)-3,4-dihydro-1H-isoquinolin-3-yl]methyl]piperazin-1-yl]-N-[3-nitro-4-(tetrahydropyran-4-ylmethylamino)phenyl]sulfonyl-2-(1H-pyrrolo[2,3-b]pyridin-5-yloxy)benzamide]
CC50 (RS4-11 cells): > 200 nM
CC50 (MOLT-4 cells): 2000 to 10000 nM
CC50 at 3 days [1]: > 25000 nM
EC50 [2]: > 250 nM

O=C(NS(=O)(=O)c1ccc(NCC2CCOCC2)c([N+](=O)[O-])c1)c1ccc(N2CCC(CN3CCCCCC3c3ccc(Cl)cc3)CC2)cc1Oc1cnc2[nH]ccc2c1 (centres unmarked) [Compound 44, 4-[4-[[2-(4-chlorophenyl)azepan-1-yl]methyl]-1-piperidyl]-N-[3-nitro-4-(tetrahydropyran-4-ylmethylamino)phenyl]sulfonyl-2-(1H-pyrrolo[2,3-b]pyridin-5-yloxy)benzamide]
IC50 (BCL-2): > 50 nM
CC50 (RS4-11 cells): > 200 nM
CC50 (MOLT-4 cells): 2000 to 10000 nM
CC50 at 3 days [1]: > 25000 nM
EC50 [2]: > 250 nM

O=C(NS(=O)(=O)c1ccc(NCC2CCOCC2)c([N+](=O)[O-])c1)c1ccc(N2CCC(CN3CCCCC3c3ccc(Cl)cc3)CC2)cc1Oc1cnc2[nH]ccc2c1 (centres unmarked) [Compound 47, 4-[4-[[2-(4-chlorophenyl)-1-piperidyl]methyl]-1-piperidyl]-N-[3-nitro-4-(tetrahydropyran-4-ylmethylamino)phenyl]sulfonyl-2-(1H-pyrrolo[2,3-b]pyridin-5-yloxy)benzamide]
IC50 (BCL-2): 10 to 50 nM
CC50 (RS4-11 cells): > 200 nM
CC50 (MOLT-4 cells): 2000 to 10000 nM
CC50 at 3 days [1]: 10000 to 25000 nM
EC50 [2]: > 250 nM

Cn1ncc(Oc2cc(N3CCC(CN4CCCCC4c4ccc(Cl)cc4)CC3)ccc2C(=O)NS(=O)(=O)c2ccc(NCC3CCOCC3)c([N+](=O)[O-])c2)cc1=O (centres unmarked) [Compound 65, 4-[4-[[2-(4-chlorophenyl)-1-piperidyl]methyl]-1-piperidyl]-2-(1-methyl-6-oxo-pyridazin-4-yl)oxy-N-[3-nitro-4-(tetrahydropyran-4-ylmethylamino)phenyl]sulfonyl-benzamide]
IC50 (BCL-2): > 50 nM
IC50 (BCL-XL): > 4000 nM
CC50 (RS4-11 cells): > 200 nM
CC50 (MOLT-4 cells): > 10000 nM
CC50 at 3 days [1]: 10000 to 25000 nM

O=C(NS(=O)(=O)c1ccc(NCC2CCOCC2)c([N+](=O)[O-])c1)c1ccc(N2CCN(C[C@@H]3CC(F)CN3c3ccc(Cl)cc3)CC2)cc1Oc1cnc2[nH]ccc2c1 (stereo partly drawn) [Compound 66, 4-[4-[[(2S)-1-(4-chlorophenyl)-4-fluoro-pyrrolidin-2-yl]methyl]piperazin-1-yl]-N-[3-nitro-4-(tetrahydropyran-4-ylmethylamino)phenyl]sulfonyl-2-(1H-pyrrolo[2,3-b]pyridin-5-yloxy)benzamide]
IC50 (BCL-2): > 50 nM
IC50 (BCL-XL): > 4000 nM
CC50 (RS4-11 cells): > 200 nM
CC50 (MOLT-4 cells): 2000 to 10000 nM
CC50 at 3 days [1]: 10000 to 25000 nM

O=C(NS(=O)(=O)c1ccc(NCC2CCOCC2)c([N+](=O)[O-])c1)c1ccc(N2CCN(CC3CCC=CC3c3ccc(Cl)cc3)CC2)cc1Oc1cnc2[nH]ccc2c1 (centres unmarked) [Compound 67, 4-[4-[[2-(4-chlorophenyl)cyclohex-3-en-1-yl]methyl]piperazin-1-yl]-N-[3-nitro-4-(tetrahydropyran-4-ylmethylamino)phenyl]sulfonyl-2-(1H-pyrrolo[2,3-b]pyridin-5-yloxy)benzamide]
IC50 (BCL-2): 10 to 50 nM
EC50 [2]: > 250 nM

O=C(NS(=O)(=O)c1ccc(NCC2CCOCC2)c([N+](=O)[O-])c1)c1ccc(N2CCN(C[C@H]3[C@H](c4ccc(Cl)cc4)[C@@H]4C=C[C@H]3C4)CC2)cc1Oc1cnc2[nH]ccc2c1 [Compound 68, 4-[4-[[(1R,2R,3R,4S)-3-(4-chlorophenyl)-2-bicyclo[2.2.1]hept-5-enyl]methyl]piperazin-1-yl]-N-[3-nitro-4-(tetrahydropyran-4-ylmethylamino)phenyl]sulfonyl-2-(1H-pyrrolo[2,3-b]pyridin-5-yloxy)benzamide]
IC50 (BCL-2): > 50 nM
IC50 (BCL-XL): > 4000 nM
CC50 (RS4-11 cells): > 200 nM
CC50 (MOLT-4 cells): 2000 to 10000 nM
CC50 at 3 days [1]: 10000 to 25000 nM

O=C1CC[C@H](CN2CCN(c3ccc(C(=O)NS(=O)(=O)c4ccc(NCC5CCOCC5)c([N+](=O)[O-])c4)c(Oc4cnc5[nH]ccc5c4)c3)CC2)[C@@H](c2ccc(Cl)cc2)N1 [Compound 70, 4-[4-[[(2S,3R)-2-(4-chlorophenyl)-6-oxo-3-piperidyl]methyl]piperazin-1-yl]-N-[3-nitro-4-(tetrahydropyran-4-ylmethylamino)phenyl]sulfonyl-2-(1H-pyrrolo[2,3-b]pyridin-5-yloxy)benzamide]
IC50 (BCL-2): > 50 nM
IC50 (BCL-XL): > 4000 nM
CC50 (RS4-11 cells): > 200 nM
CC50 (MOLT-4 cells): > 10000 nM
CC50 at 3 days [1]: 10000 to 25000 nM

O=C(NS(=O)(=O)c1ccc(NCCCN2CCOCC2)c([N+](=O)[O-])c1)c1ccc(N2CCC(CN3CCCCC3c3ccc(Cl)cc3)CC2)cc1Oc1cnc2[nH]ccc2c1 (centres unmarked) [Compound 73, 4-[4-[[2-(4-chlorophenyl)-1-piperidyl]methyl]-1-piperidyl]-N [4-(3-morpholinopropylamino)-3-nitro-phenyl]sulfonyl-2-(1H-pyrrolo[2,3-b]pyridin-5-yloxy)benzamide]
IC50 (BCL-2): 10 to 50 nM
IC50 (BCL-XL): 2000 to 4000 nM
CC50 (RS4-11 cells): > 200 nM
CC50 (MOLT-4 cells): 2000 to 10000 nM
CC50 at 3 days [1]: 10000 to 25000 nM

C[C@]1(O)CC[C@H](CN2CCN(c3ccc(C(=O)NS(=O)(=O)c4ccc(NCC5CCOCC5)c([N+](=O)[O-])c4)c(Oc4cnc5[nH]ccc5c4)c3)CC2)[C@@H](c2ccc(Cl)cc2)C1 [Compound 74, 4-[4-[[(1S,2S,4S)-2-(4-chlorophenyl)-4-hydroxy-4-methyl-cyclohexyl]methyl]piperazin-1-yl]-N-[3-nitro-4-(tetrahydropyran-4-ylmethylamino)phenyl]sulfonyl-2-(1H-pyrrolo[2,3-b]pyridin-5-yloxy)benzamide]
IC50 (BCL-2): 10 to 50 nM
IC50 (BCL-XL): 2000 to 4000 nM
CC50 (RS4-11 cells): > 200 nM
CC50 (MOLT-4 cells): 2000 to 10000 nM
CC50 at 3 days [1]: 10000 to 25000 nM

O=C1CC[C@]2(c3ccc(Cl)cc3)C[C@@]2(CN2CCN(c3ccc(C(=O)NS(=O)(=O)c4ccc(NCC5CCOCC5)c([N+](=O)[O-])c4)c(Oc4cnc5[nH]ccc5c4)c3)CC2)C1 [Compound 77, 4-[4-[[(1R,6R)-6-(4-chlorophenyl)-3-oxo-norcaran-1-yl]methyl]piperazin-1-yl]-N-[3-nitro-4-(tetrahydropyran-4-ylmethylamino)phenyl]sulfonyl-2-(1H-pyrrolo[2,3-b]pyridin-5-yloxy)benzamide]
IC50 (BCL-2): > 50 nM
IC50 (BCL-XL): > 4000 nM
CC50 (RS4-11 cells): > 200 nM
CC50 (MOLT-4 cells): 2000 to 10000 nM
CC50 at 3 days [1]: 10000 to 25000 nM
